What all share (type): cell-based
For one assay, the target named is hKv1.3 (Homo sapiens, UniProt P22001). The assay is described as follows: cell-based. The following applies: read-out: Kv1.3 (IWQ) IC50 (nM, Avg).
Assay [1] deals with IFN-g secretion from T cells in human whole blood.
The subject of assay [2] is IL-2 secretion from T cells in human whole blood. The settings on record: read-out: WB (IL-2) IC50 (nM, Avg).
[3] abbreviates: read-out: WB (IFNg) IC50 (nM, Avg).

This is an account of results in patent publication US20120121591A1 (priority 2009, published 2012).

Read-outs that look alike come from different tables or passages of the source.

Chain of hKv1.3 (P22001 whole entry): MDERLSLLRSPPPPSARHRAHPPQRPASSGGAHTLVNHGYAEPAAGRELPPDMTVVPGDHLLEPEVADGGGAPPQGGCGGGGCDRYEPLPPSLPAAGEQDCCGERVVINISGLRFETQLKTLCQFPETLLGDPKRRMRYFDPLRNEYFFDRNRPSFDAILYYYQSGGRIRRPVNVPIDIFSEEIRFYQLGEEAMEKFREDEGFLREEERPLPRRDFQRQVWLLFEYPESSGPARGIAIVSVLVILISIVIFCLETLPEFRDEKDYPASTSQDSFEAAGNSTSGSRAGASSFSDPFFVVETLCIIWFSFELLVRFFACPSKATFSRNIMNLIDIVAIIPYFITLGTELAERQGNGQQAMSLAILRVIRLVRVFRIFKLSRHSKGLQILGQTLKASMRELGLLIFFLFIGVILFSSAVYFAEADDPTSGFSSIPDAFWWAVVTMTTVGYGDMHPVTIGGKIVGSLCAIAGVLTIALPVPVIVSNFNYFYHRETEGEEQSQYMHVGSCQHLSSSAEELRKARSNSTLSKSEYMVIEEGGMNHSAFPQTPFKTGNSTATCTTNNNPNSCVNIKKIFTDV

In the case of “20kDaPEG-[-Nal16]ShK (RSCIDTIPKSRCTAFXCKHSMKYRLSFCRKTCGTC; 20 kDa PEG; 1-Nal16; ShK PEGylated toxin peptide analog; PEGylated; 3-(1-naphthyl)alanine)”, the IC50 in the assay with hKv1.3 came to 39.1 nM. For `CC[C@H](C)[C@@H]1NC(=O)[C@@H](NC(=O)[C@H](CO)NC(=O)[C@@H](N)CCCNC(=N)N)CSSC[C@@H](C(=O)O)NC(=O)[C@H]([C@@H](C)O)NC(=O)CNC(=O)[C@@H]2CSSC[C@@H]3NC(=O)[C@H](CCC(N)=O)NC(=O)[C@H](Cc4ccccc4)NC(=O)[C@H](C)NC(=O)[C@H]([C@@H](C)O)NC(=O)[C@H](CSSC[C@H](NC(=O)[C@H](Cc4ccccc4)NC(=O)[C@H](CO)NC(=O)[C@H](CC(C)C)NC(=O)[C@H](CCCNC(=N)N)NC(=O)[C@H](Cc4ccc(O)cc4)NC(=O)[C@H](CCCCN)NC(=O)[C@H](CCSC)NC(=O)[C@H](C)NC(=O)[C@H](Cc4c[nH]cn4)NC(=O)[C@H](CCCCN)NC3=O)C(=O)N[C@@H](CCCNC(=N)N)C(=O)N[C@@H](CCCCN)C(=O)N[C@@H]([C@@H](C)O)C(=O)N2)NC(=O)[C@H](CCCNC(=N)N)NC(=O)[C@H](CO)NC(=O)[C@H](CCCCN)NC(=O)[C@@H]2CCCN2C(=O)[C@H]([C@@H](C)CC)NC(=O)[C@H]([C@@H](C)O)NC(=O)[C@H](CC(=O)O)NC1=O` [[Ala20]ShK], the IC50 in assay [1] (setting [3]) was 0.825 nM; in assay [2], 0.3 nM.

On to `CC[C@H](C)[C@@H]1NC(=O)[C@H]([C@@H](C)O)NC(=O)[C@H](CC(=O)O)NC(=O)[C@H](CCCNC(=N)N)NC(=O)[C@@H](NC(=O)[C@H](CO)NC(=O)[C@@H](N)CCCNC(=N)N)CSSC[C@@H](C(=O)O)NC(=O)[C@H]([C@@H](C)O)NC(=O)CNC(=O)[C@@H]2CSSC[C@@H]3NC(=O)[C@H](CCC(N)=O)NC(=O)[C@H](Cc4ccccc4)NC(=O)[C@H](C)NC(=O)[C@H]([C@@H](C)O)NC(=O)[C@H](CSSC[C@H](NC(=O)[C@H](Cc4ccccc4)NC(=O)[C@H](CO)NC(=O)[C@H](CC(C)C)NC(=O)[C@H](CCCNC(=N)N)NC(=O)[C@H](Cc4ccc(O)cc4)NC(=O)[C@H](CCCCN)NC(=O)[C@H](CCSC)NC(=O)[C@H](CO)NC(=O)[C@H](Cc4c[nH]cn4)NC(=O)[C@H](CCCCN)NC3=O)C(=O)N[C@@H](CCCNC(=N)N)C(=O)N[C@@H](CCCCN)C(=O)N[C@@H]([C@@H](C)O)C(=O)N2)NC(=O)[C@H](CCCNC(=N)N)NC(=O)[C@H](CO)NC(=O)[C@H](CCCCN)NC(=O)[C@@H]2CCCN2C1=O` [[Arg4]ShK], for which the figures for the IC50 in assay [1] (setting [3]) and in assay [2] were 0.081 nM and 0.051 nM, respectively.

As to `CC[C@H](C)[C@@H]1NC(=O)[C@@H](NC(=O)[C@H](CO)NC(=O)[C@@H](N)CCCNC(=N)N)CSSC[C@@H](C(=O)O)NC(=O)[C@H]([C@@H](C)O)NC(=O)CNC(=O)[C@@H]2CSSC[C@@H]3NC(=O)[C@H](CCC(N)=O)NC(=O)[C@H](Cc4ccccc4)NC(=O)[C@H](C)NC(=O)[C@H]([C@@H](C)O)NC(=O)[C@H](CSSC[C@H](NC(=O)[C@H](Cc4ccccc4)NC(=O)[C@H](CO)NC(=O)[C@H](CC(C)C)NC(=O)[C@H](CCCNC(=N)N)NC(=O)[C@H](Cc4ccc(O)cc4)NC(=O)[C@H](CCCCN)NC(=O)[C@H](CCSC)NC(=O)[C@H](CO)NC(=O)[C@H](Cc4c[nH]cn4)NC(=O)[C@H](CCCNC(=N)N)NC3=O)C(=O)N[C@@H](CCCNC(=N)N)C(=O)N[C@@H](CCCCN)C(=O)N[C@@H]([C@@H](C)O)C(=O)N2)NC(=O)[C@H](CCCNC(=N)N)NC(=O)[C@H](CO)NC(=O)[C@H](CCCCN)NC(=O)[C@@H]2CCCN2C(=O)[C@H]([C@@H](C)CC)NC(=O)[C@H]([C@@H](C)O)NC(=O)[C@H](CC(=O)O)NC1=O` [[Arg18]ShK], the IC50 in assay [1] (setting [3]) was 0.023 nM; in assay [2], 0.012 nM. Take `CC[C@H](C)[C@@H]1NC(=O)[C@@H](NC(=O)[C@H](CO)NC(=O)[C@@H](N)CCCNC(=N)N)CSSC[C@@H](C(=O)O)NC(=O)[C@H](CCCNC(=N)N)NC(=O)CNC(=O)[C@@H]2CSSC[C@@H]3NC(=O)[C@H](CCC(N)=O)NC(=O)[C@H](Cc4ccccc4)NC(=O)[C@H](C)NC(=O)[C@H]([C@@H](C)O)NC(=O)[C@H](CSSC[C@H](NC(=O)[C@H](Cc4ccccc4)NC(=O)[C@H](CO)NC(=O)[C@H](CC(C)C)NC(=O)[C@H](CCCNC(=N)N)NC(=O)[C@H](Cc4ccc(O)cc4)NC(=O)[C@H](CCCCN)NC(=O)[C@H](CCSC)NC(=O)[C@H](CO)NC(=O)[C@H](Cc4c[nH]cn4)NC(=O)[C@H](CCCCN)NC3=O)C(=O)N[C@@H](CCCNC(=N)N)C(=O)N[C@@H](CCCCN)C(=O)N[C@@H]([C@@H](C)O)C(=O)N2)NC(=O)[C@H](CCCNC(=N)N)NC(=O)[C@H](CO)NC(=O)[C@H](CCCCN)NC(=O)[C@@H]2CCCN2C(=O)[C@H]([C@@H](C)CC)NC(=O)[C@H]([C@@H](C)O)NC(=O)[C@H](CC(=O)O)NC1=O` [[Arg34]ShK]: the results for the IC50 in assay [1] (setting [3]) and in assay [2] were 0.486 nM and 0.418 nM, respectively. Regarding `CCCC[C@@H]1NC(=O)[C@H](CO)NC(=O)[C@H](Cc2c[nH]cn2)NC(=O)[C@H](CCC(=O)O)NC(=O)[C@@H]2CSSC[C@@H]3NC(=O)[C@H]([C@@H](C)O)NC(=O)[C@H](CCCNC(=N)N)NC(=O)[C@H](CCCNC(=N)N)NC(=O)[C@H](CSSC[C@H](NC(=O)[C@H](CCCNC(=N)N)NC(=O)[C@H](CO)NC(=O)[C@H](CCCCN)NC(=O)[C@@H]4CCCN4C(=O)[C@H]([C@@H](C)CC)NC(=O)[C@H]([C@@H](C)O)NC(=O)[C@H](CC(=O)O)NC(=O)[C@H](CCC(=O)O)NC(=O)[C@@H](NC(=O)[C@H](CO)NC(=O)[C@@H](N)CCCNC(=N)N)CSSC[C@@H](C(N)=O)NC(=O)[C@H]([C@@H](C)O)NC(=O)CNC3=O)C(=O)N[C@@H]([C@@H](C)O)C(=O)N[C@@H](C)C(=O)N[C@@H](Cc3ccccc3)C(=O)N[C@@H](CCCCN)C(=O)N2)NC(=O)[C@H](Cc2ccccc2)NC(=O)[C@H](CO)NC(=O)[C@H](CC(C)C)NC(=O)[C@H](CCCNC(=N)N)NC(=O)[C@H](Cc2ccc(O)cc2)NC(=O)[C@H](CCCCN)NC1=O` [[Glu4,18, Lys16,Nle21, Arg30]ShK-amide], the IC50 was determined as 1.99 nM in assay [1] (setting [3]) and 0.97 nM in assay [2].

Regarding `CC[C@H](C)[C@@H]1NC(=O)[C@@H](NC(=O)[C@H](CO)NC(=O)[C@@H](N)CCCNC(=N)N)CSSC[C@@H](C(=O)O)NC(=O)[C@H]([C@@H](C)O)NC(=O)CNC(=O)[C@@H]2CSSC[C@@H]3NC(=O)[C@H](CCC(N)=O)NC(=O)[C@H](Cc4ccccc4)NC(=O)[C@H](CCC(=O)O)NC(=O)[C@H]([C@@H](C)O)NC(=O)[C@H](CSSC[C@H](NC(=O)[C@H](Cc4ccccc4)NC(=O)[C@H](CO)NC(=O)[C@H](CC(C)C)NC(=O)[C@H](CCCNC(=N)N)NC(=O)[C@H](Cc4ccc(O)cc4)NC(=O)[C@H](CCCCN)NC(=O)[C@H](CCSC)NC(=O)[C@H](CO)NC(=O)[C@H](Cc4c[nH]cn4)NC(=O)[C@H](CCCCN)NC3=O)C(=O)N[C@@H](CCCNC(=N)N)C(=O)N[C@@H](CCCCN)C(=O)N[C@@H]([C@@H](C)O)C(=O)N2)NC(=O)[C@H](CCCNC(=N)N)NC(=O)[C@H](CO)NC(=O)[C@H](CCCCN)NC(=O)[C@@H]2CCCN2C(=O)[C@H]([C@@H](C)CC)NC(=O)[C@H]([C@@H](C)O)NC(=O)[C@H](CC(=O)O)NC1=O` [[Glu14]ShK], the IC50 in assay [1] (read-out: WB (IFNg) IC5- (nM, Avg)) stood at 0.132 nM; in assay [2], 0.035 nM. For the molecule `CC[C@H](C)[C@@H]1NC(=O)[C@@H](NC(=O)[C@H](CO)NC(=O)[C@@H](N)CCCNC(=N)N)CSSC[C@@H](C(=O)O)NC(=O)[C@H]([C@@H](C)O)NC(=O)CNC(=O)[C@@H]2CSSC[C@@H]3NC(=O)[C@H](CCCCN)NC(=O)[C@H](Cc4ccccc4)NC(=O)[C@H](C)NC(=O)[C@H]([C@@H](C)O)NC(=O)[C@H](CSSC[C@H](NC(=O)[C@H](Cc4cccc5ccccc45)NC(=O)[C@H](CO)NC(=O)[C@H](CC(C)C)NC(=O)[C@H](CCCNC(=N)N)NC(=O)[C@H](Cc4ccc(O)cc4)NC(=O)[C@H](CCCCN)NC(=O)[C@H](CCSC)NC(=O)[C@H](CO)NC(=O)[C@H](Cc4c[nH]cn4)NC(=O)[C@H](CCCCN)NC3=O)C(=O)N[C@@H](CCCCN)C(=O)N[C@@H](CCCNC(=N)N)C(=O)N[C@@H]([C@@H](C)O)C(=O)N2)NC(=O)[C@H](CCCNC(=N)N)NC(=O)[C@H](CO)NC(=O)[C@H](CCCCN)NC(=O)[C@@H]2CCCN2C(=O)[C@H]([C@@H](C)CC)NC(=O)[C@H]([C@@H](C)O)NC(=O)[C@H](CC(=O)O)NC1=O` [[Lys16,29; 1-Na127;Arg30]ShK], the IC50 in assay [1] (setting [3]) was 3.83 nM; in assay [2] it was 3.37 nM.

Take `CC[C@H](C)[C@@H]1NC(=O)[C@@H](NC(=O)[C@H](CO)NC(=O)[C@@H](N)CCCNC(=N)N)CSSC[C@@H](C(=O)O)NC(=O)[C@H]([C@@H](C)O)NC(=O)CNC(=O)[C@@H]2CSSC[C@@H]3NC(=O)[C@H](CCCCN)NC(=O)[C@H](Cc4ccccc4)NC(=O)[C@H](C)NC(=O)[C@H]([C@@H](C)O)NC(=O)[C@H](CSSC[C@H](NC(=O)[C@H](Cc4ccccc4)NC(=O)[C@H](CO)NC(=O)[C@H](CC(C)C)NC(=O)[C@H](CCCNC(=N)N)NC(=O)[C@H](Cc4ccc(O)cc4)NC(=O)[C@H](CCCCN)NC(=O)[C@H](CCSC)NC(=O)[C@H](CO)NC(=O)[C@H](Cc4c[nH]cn4)NC(=O)[C@H](CCCCN)NC3=O)C(=O)N[C@@H](CCCNC(=N)N)C(=O)N[C@@H](CCCNC(=N)N)C(=O)N[C@@H]([C@@H](C)O)C(=O)N2)NC(=O)[C@H](CCCNC(=N)N)NC(=O)[C@H](CO)NC(=O)[C@H](CCCCN)NC(=O)[C@@H]2CCCN2C(=O)[C@H]([C@@H](C)CC)NC(=O)[C@H]([C@@H](C)O)NC(=O)[C@H](CC(=O)O)NC1=O` [[Lys16,Arg30]ShK]: the IC50 was 0.189 nM in assay [1] (setting [3]) and 0.169 nM in assay [2].
